Data published in the supplement of paper PMC10307832.

Assays:
Experiment in all cases: relative viability (nuclei count vs DMSO), 5 days (fraction); higher = more cells survive
COR-L 105 = system: COR-L 105
Summary of the method: (§1)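 Lung cancer cell lines in 1536-well plates got either a single drug or a fixed anchor-drug dose together with five library-drug doses (not always all listed) in √10 steps, by pin tool, on the day after seeding. Nuclei were counted after 5 days, and relative viability is the treated-to-vehicle ratio of nuclei counts. Values are medians of duplicate plates.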

COR-L23 = system: COR-L23
Summary of the method: as §1

HARA = system: HARA
Summary of the method: as §1

HCC-15 = system: HCC-15
Summary of the method: as §1

HOP-62 = system: HOP-62
Summary of the method: as §1

NCI-H1355 = system: NCI-H1355
Summary of the method: as §1

NCI-H1395 = system: NCI-H1395
Summary of the method: as §1

NCI-H1734 = system: NCI-H1734
Summary of the method: as §1

NCI-H1755 = system: NCI-H1755
Summary of the method: as §1

NCI-H1792 = system: NCI-H1792
Summary of the method: as §1

NCI-H1793 = system: NCI-H1793
Summary of the method: as §1

NCI-H1993 = system: NCI-H1993
Summary of the method: as §1

NCI-H2009 = system: NCI-H2009
Summary of the method: as §1

NCI-H2170 = system: NCI-H2170
Summary of the method: as §1

NCI-H2228 = system: NCI-H2228
Summary of the method: as §1

NCI-H2347 = system: NCI-H2347
Summary of the method: as §1

NCI-H358 = system: NCI-H358
Summary of the method: as §1

NCI-H522 = system: NCI-H522
Summary of the method: as §1

NCI-H647 = system: NCI-H647
Summary of the method: as §1

NCI-H838 = system: NCI-H838
Summary of the method: as §1

SK-MES-1 = system: SK-MES-1
Summary of the method: as §1

UMC-11 = system: UMC-11
Summary of the method: as §1

## O=c1cc(-c2cccc3c2Sc2ccccc2S3)oc(N2CCOCC2)c1 + CC(=O)c1c(C)c2cnc(Nc3ccc(N4CCNCC4)cn3)nc2n(C2CCCC2)c1=O [Palbociclib] (partner 0.5 µM)
COR-L 105; first compound 0.08 µM
  relative viability: 0.349
COR-L 105; first compound 0.253 µM
  relative viability: 0.319
COR-L 105; first compound 0.8 µM
  relative viability: 0.385
COR-L 105; first compound 2.53 µM
  relative viability: 0.413
COR-L 105; first compound 8 µM
  relative viability: 0.416
COR-L23; first compound 0.08 µM
  relative viability: 0.291
COR-L23; first compound 0.253 µM
  relative viability: 0.307
COR-L23; first compound 0.8 µM
  relative viability: 0.393
COR-L23; first compound 2.53 µM
  relative viability: 0.334
COR-L23; first compound 8 µM
  relative viability: 0.34
HARA; first compound 0.08 µM
  relative viability: 0.253
HARA; first compound 0.253 µM
  relative viability: 0.201
HARA; first compound 0.8 µM
  relative viability: 0.241
HARA; first compound 2.53 µM
  relative viability: 0.209
HARA; first compound 8 µM
  relative viability: 0.266
HCC-15; first compound 0.08 µM
  relative viability: 0.796
HCC-15; first compound 0.253 µM
  relative viability: 0.778
HCC-15; first compound 0.8 µM
  relative viability: 0.79
HCC-15; first compound 2.53 µM
  relative viability: 0.695
HCC-15; first compound 8 µM
  relative viability: 0.636
HOP-62; first compound 0.08 µM
  relative viability: 0.465
HOP-62; first compound 0.253 µM
  relative viability: 0.391
HOP-62; first compound 0.8 µM
  relative viability: 0.497
HOP-62; first compound 2.53 µM
  relative viability: 0.512
HOP-62; first compound 8 µM
  relative viability: 0.54
NCI-H1355; first compound 0.08 µM
  relative viability: 0.396
NCI-H1355; first compound 0.253 µM
  relative viability: 0.428
NCI-H1355; first compound 0.8 µM
  relative viability: 0.371
NCI-H1355; first compound 2.53 µM
  relative viability: 0.401
NCI-H1355; first compound 8 µM
  relative viability: 0.264
NCI-H1395; first compound 0.08 µM
  relative viability: 0.62
NCI-H1395; first compound 0.253 µM
  relative viability: 0.539
NCI-H1395; first compound 0.8 µM
  relative viability: 0.568
NCI-H1395; first compound 2.53 µM
  relative viability: 0.574
NCI-H1395; first compound 8 µM
  relative viability: 0.638
NCI-H1734; first compound 0.08 µM
  relative viability: 0.33
NCI-H1734; first compound 0.253 µM
  relative viability: 0.344
NCI-H1734; first compound 0.8 µM
  relative viability: 0.414
NCI-H1734; first compound 8 µM
  relative viability: 0.357
NCI-H1755; first compound 0.08 µM
  relative viability: 0.436
NCI-H1755; first compound 0.253 µM
  relative viability: 0.464
NCI-H1755; first compound 0.8 µM
  relative viability: 0.463
NCI-H1755; first compound 2.53 µM
  relative viability: 0.383
NCI-H1755; first compound 8 µM
  relative viability: 0.409
NCI-H1792; first compound 0.08 µM
  relative viability: 0.673
NCI-H1792; first compound 0.253 µM
  relative viability: 0.847
NCI-H1792; first compound 0.8 µM
  relative viability: 0.635
NCI-H1792; first compound 2.53 µM
  relative viability: 0.654
NCI-H1792; first compound 8 µM
  relative viability: 0.688
NCI-H1793; first compound 0.08 µM
  relative viability: 0.21
NCI-H1793; first compound 0.253 µM
  relative viability: 0.308
NCI-H1793; first compound 0.8 µM
  relative viability: 0.311
NCI-H1793; first compound 2.53 µM
  relative viability: 0.257
NCI-H1793; first compound 8 µM
  relative viability: 0.273
NCI-H1993; first compound 0.08 µM
  relative viability: 0.632
NCI-H1993; first compound 0.253 µM
  relative viability: 0.674
NCI-H1993; first compound 0.8 µM
  relative viability: 0.526
NCI-H1993; first compound 2.53 µM
  relative viability: 0.599
NCI-H1993; first compound 8 µM
  relative viability: 0.709
NCI-H2009; first compound 0.08 µM
  relative viability: 0.189
NCI-H2009; first compound 0.253 µM
  relative viability: 0.232
NCI-H2009; first compound 0.8 µM
  relative viability: 0.225
NCI-H2009; first compound 2.53 µM
  relative viability: 0.199
NCI-H2009; first compound 8 µM
  relative viability: 0.213
NCI-H2170; first compound 0.08 µM
  relative viability: 0.45
NCI-H2170; first compound 0.253 µM
  relative viability: 0.482
NCI-H2170; first compound 0.8 µM
  relative viability: 0.414
NCI-H2170; first compound 2.53 µM
  relative viability: 0.354
NCI-H2170; first compound 8 µM
  relative viability: 0.359
NCI-H2228; first compound 0.08 µM
  relative viability: 0.766
NCI-H2228; first compound 0.253 µM
  relative viability: 0.766
NCI-H2228; first compound 0.8 µM
  relative viability: 0.901
NCI-H2228; first compound 2.53 µM
  relative viability: 0.608
NCI-H2228; first compound 8 µM
  relative viability: 0.758
NCI-H2347; first compound 0.08 µM
  relative viability: 0.42
NCI-H2347; first compound 0.253 µM
  relative viability: 0.483
NCI-H2347; first compound 0.8 µM
  relative viability: 0.453
NCI-H2347; first compound 2.53 µM
  relative viability: 0.39
NCI-H2347; first compound 8 µM
  relative viability: 0.483
NCI-H358; first compound 0.08 µM
  relative viability: 0.135
NCI-H358; first compound 0.253 µM
  relative viability: 0.144
NCI-H358; first compound 0.8 µM
  relative viability: 0.13
NCI-H358; first compound 2.53 µM
  relative viability: 0.134
NCI-H358; first compound 8 µM
  relative viability: 0.152
NCI-H522; first compound 0.08 µM
  relative viability: 1.13
NCI-H522; first compound 0.253 µM
  relative viability: 1.07
NCI-H522; first compound 0.8 µM
  relative viability: 1.01
NCI-H522; first compound 2.53 µM
  relative viability: 1.04
NCI-H522; first compound 8 µM
  relative viability: 1
NCI-H647; first compound 0.08 µM
  relative viability: 0.438
NCI-H647; first compound 0.253 µM
  relative viability: 0.487
NCI-H647; first compound 0.8 µM
  relative viability: 0.357
NCI-H647; first compound 2.53 µM
  relative viability: 0.296
NCI-H647; first compound 8 µM
  relative viability: 0.391
NCI-H838; first compound 0.08 µM
  relative viability: 0.187
NCI-H838; first compound 0.253 µM
  relative viability: 0.265
NCI-H838; first compound 0.8 µM
  relative viability: 0.202
NCI-H838; first compound 2.53 µM
  relative viability: 0.212
NCI-H838; first compound 8 µM
  relative viability: 0.222
SK-MES-1; first compound 0.08 µM
  relative viability: 0.311
SK-MES-1; first compound 0.253 µM
  relative viability: 0.321
SK-MES-1; first compound 0.8 µM
  relative viability: 0.313
SK-MES-1; first compound 2.53 µM
  relative viability: 0.294
SK-MES-1; first compound 8 µM
  relative viability: 0.286
UMC-11; first compound 0.08 µM
  relative viability: 0.338
UMC-11; first compound 0.253 µM
  relative viability: 0.328
UMC-11; first compound 0.8 µM
  relative viability: 0.346
UMC-11; first compound 2.53 µM
  relative viability: 0.326
UMC-11; first compound 8 µM
  relative viability: 0.345
